Results taken from patent US8609592B2, “2-(substituted phenyl)-6-amino-5-alkoxy, thioalkoxy and aminoalkyl-4-pyrimidinecarboxylates and their use as herbicides” (Dow AgroSciences LLC, priority 2007, dated 2013).

Assays:
[1] = tested on: Wild buckwheat (Polygonum convolvulus); assay: General postemergence herbicidal activity, greenhouse; type: in vivo; conditions: Fallopia convolvulus, post-emergence, 336 h, post-emergent, visual score after 14 days (0 no injury, 100 complete kill), read-out: % Growth Reduction POLCO; for pest or weed control at 140 g/ha: 140 g ai/ha; for pest or weed control at 280 g/ha: 280 g ai/ha
Protocol: (§1) Seeds or nutlets of the desired test plant species were planted in Sun Gro MetroMix® 360 planting mixture, which typically has a pH of 6.0 to 6.8 and an organic matter content of about 30 percent, in plastic pots with a surface area of 64 square centimeters. When required to ensure good germination and healthy plants, a fungicide treatment and/or other chemical or physical treatment was applied. The plants were grown for 7-21 days in a greenhouse with an approximate 15 hour photoperiod which was maintained at about 23-29° C. during the day and 22-28° C. during the night. Nutrients and water were added on a regular basis and supplemental lighting was provided with overhead metal halide 1000-Watt lamps as necessary. The plants were employed for testing when they reached the first or second true leaf stage.
(§2) A weighed amount, determined by the highest rate to be tested, of each test compound was dissolved in 4 mL of a 97:3 v/v (volume/volume) mixture of acetone and dimethyl sulfoxide (DMSO) to obtain concentrated stock solutions. […] The concentrated stock solutions obtained were diluted with 20 mL of an aqueous mixture containing acetone, water, isopropyl alcohol, DMSO, Atplus 411F crop oil concentrate, and Triton X-155 surfactant in a 48.5:39:10:1.5:1.0:0.02 v/v ratio to obtain spray solutions containing the highest application rates. Additional application rates were obtained by serial dilution of 12 mL of the high rate solution into a solution containing 2 mL of 97:3 v/v (volume/volume) mixture of acetone and dimethyl sulfoxide (DMSO) and 10 mL of an aqueous mixture containing acetone, water, isopropyl alcohol, DMSO, Atplus 411F crop oil concentrate, and Triton X-155 surfactant in a 48.5:39:10:1.5:1.0:0.02 v/v ratio to obtain ½×, ¼×, ⅛× and 1/16× rates of the high rate. Compound requirements are based upon a 12 mL application volume at a rate of 187 L/ha. Formulated compounds were applied to the plant material with an overhead Mandel track sprayer equipped with a 8002E nozzles calibrated to deliver 187 L/ha over an application area of 0.503 square meters at a spray height of […] above the average plant canopy height. Control plants were sprayed in the same manner with the solvent blank.
(§3) The treated plants and control plants were placed in a greenhouse as described above and watered by sub-irrigation to prevent wash-off of the test compounds. After 14 days, the condition of the test plants as compared with that of the untreated plants was determined visually and scored on a scale of 0 to 100 percent where 0 corresponds to no injury and 100 corresponds to complete kill.

[2] = tested on: Giant foxtail (Setaria faberi); assay: as above; type: in vivo; conditions: post-emergence, 336 h, post-emergent, visual score after 14 days (0 no injury, 100 complete kill), read-out: % Growth Reduction SETFA; for pest or weed control at 140 g/ha: 140 g ai/ha; for pest or weed control at 280 g/ha: 280 g ai/ha
Protocol: as §1, §2, §3

[3] = tested on: Barnyardgrass (Echinochloa crus-galli); assay: as above; type: in vivo; conditions: post-emergence, 336 h, post-emergent, visual score after 14 days (0 no injury, 100 complete kill), read-out: % Growth Reduction ECHCG; for pest or weed control at 140 g/ha: 140 g ai/ha
Protocol: as §1, §2, §3

[4] = tested on: Velvetleaf (Abutilon theophrasti); assay: as above; type: in vivo; conditions: post-emergence, 336 h, post-emergent, visual score after 14 days (0 no injury, 100 complete kill), read-out: % Growth Reduction ABUTH; for pest or weed control at 140 g/ha: 140 g ai/ha; for pest or weed control at 280 g/ha: 280 g ai/ha
Protocol: as §1, §2, §3

What does the source list for `COC(=O)c1nc(-c2ccc(Cl)c(OC)c2F)nc(N)c1OC` [Compound 1, 6-amino-2-(4-chloro-2-fluoro-3-methoxyphenyl)-5-methoxypyrimidine-4-carboxylic acid methyl ester]?
pest or weed control at 140 g/ha [1]: 100%; pest or weed control at 140 g/ha [2]: 95%; pest or weed control at 140 g/ha [3]: 100%; pest or weed control at 140 g/ha [4]: 100%

Which results are given for `CCOC(=O)c1nc(-c2ccc(Cl)cc2)nc(N)c1OC` [Compound 2, 6-Amino-2-(4-chlorophenyl)-5-methoxypyrimidine-4-carboxylic acid ethyl ester]?
pest or weed control at 140 g/ha [1]: 100%; pest or weed control at 140 g/ha [2]: 70%; pest or weed control at 140 g/ha [3]: 50%; pest or weed control at 140 g/ha [4]: 98%

For `CCOC(=O)c1nc(-c2cc(C)c(Cl)cc2F)nc(N)c1OC` [Compound 3, 6-Amino-2-(4-chloro-2-fluoro-5-methylphenyl)-5-methoxypyrimidine-4-carboxylic acid ethyl ester], which pest or weed control at 280 g/ha [1] is on record?
Its pest or weed control at 280 g/ha is 85%.

What about the pest or weed control at 280 g/ha [2] of the same compound?
The pest or weed control at 280 g/ha was 0%.

What about the pest or weed control at 280 g/ha ([3]; 280 g ai/ha) of the same compound?
The pest or weed control at 280 g/ha was 0%.

And the pest or weed control at 280 g/ha [4]?
The pest or weed control at 280 g/ha was 60%.

For `CCOC(=O)c1nc(-c2ccc(Cl)c(F)c2)nc(N)c1OC` [Compound 9, 6-Amino-2-(4-chloro-3-fluorophenyl)-5-methoxypyrimidine-4-carboxylic acid ethyl ester], which pest or weed control at 140 g/ha [1] is on record?
Its pest or weed control at 140 g/ha is 100%.

And the pest or weed control at 140 g/ha [2]?
Its pest or weed control at 140 g/ha is 30%.

What about the pest or weed control at 140 g/ha [3] of the same compound?
Its pest or weed control at 140 g/ha is 90%.

What about the pest or weed control at 140 g/ha [4] of the same compound?
The pest or weed control at 140 g/ha was 95%.

What does the source list for `CCOC(=O)c1nc(-c2ccc(C)cc2F)nc(N)c1OC` [Compound 10, 6-Amino-2-(2-fluoro-4-methylphenyl)-5-methoxypyrimidine-4-carboxylic acid ethyl ester]?
pest or weed control at 140 g/ha [1]: 90%; pest or weed control at 140 g/ha [2]: 0%; pest or weed control at 140 g/ha [3]: 10%; pest or weed control at 140 g/ha [4]: 100%

Which results are given for `CCOC(=O)c1nc(-c2ccc(C(F)(F)F)cc2)nc(N)c1OC` [Compound 11, 6-Amino-5-methoxy-2-(4-trifluoromethylphenyl)pyrimidine-4-carboxylic acid ethyl ester]?
pest or weed control at 140 g/ha [1]: 85%; pest or weed control at 140 g/ha [2]: 0%; pest or weed control at 140 g/ha [3]: 85%; pest or weed control at 140 g/ha [4]: 90%

For `CCOC(=O)c1nc(-c2ccc3c(c2)OCO3)nc(N)c1OC` [Compound 12, 6-Amino-2-benzo[1,3]-dioxol-5-yl-5-methoxypyrimidine-4-carboxylic acid ethyl ester], which pest or weed control at 140 g/ha [1] is on record?
The pest or weed control at 140 g/ha was 80%.

What about the pest or weed control at 140 g/ha [2] of the same compound?
The pest or weed control at 140 g/ha was 90%.

And the pest or weed control at 140 g/ha [3]?
Its pest or weed control at 140 g/ha is 85%.

What about the pest or weed control at 140 g/ha [4] of the same compound?
Its pest or weed control at 140 g/ha is 50%.

Which pest or weed control at 140 g/ha [1] does the source give for `CCOC(=O)c1nc(-c2ccc(Cl)cc2F)nc(N)c1OC` [Compound 13, 6-Amino-2-(4-chloro-2-fluorophenyl)-5-methoxypyrimidine-4-carboxylic acid ethyl ester] here?
The pest or weed control at 140 g/ha was 100%.

And the pest or weed control at 140 g/ha [2]?
The pest or weed control at 140 g/ha was 35%.

What about the pest or weed control at 140 g/ha [3] of the same compound?
The pest or weed control at 140 g/ha was 0%.

And the pest or weed control at 140 g/ha [4]?
Its pest or weed control at 140 g/ha is 100%.

For `CCOC(=O)c1nc(-c2ccc(Cl)c(C(C)F)c2F)nc(N)c1OC` (stereo not shown) [Compound 14, 6-Amino-2-[4-chloro-2-fluoro-3-(1-fluoroethyl)phenyl]-5-methoxypyrimidine-4-carboxylic acid ethyl ester], which pest or weed control at 140 g/ha [1] is on record?
Its pest or weed control at 140 g/ha is 100%.

And the pest or weed control at 140 g/ha [2]?
Its pest or weed control at 140 g/ha is 100%.

What about the pest or weed control at 140 g/ha [3] of the same compound?
The pest or weed control at 140 g/ha was 100%.

And the pest or weed control at 140 g/ha [4]?
The pest or weed control at 140 g/ha was 100%.

Which pest or weed control at 140 g/ha [1] does the source give for `CCOC(=O)c1nc(-c2cc(OC)c(Cl)cc2F)nc(N)c1OC` [Compound 16, 6-Amino-2-(4-chloro-2-fluoro-5-methoxyphenyl)-5-methoxypyrimidine-4-carboxylic acid ethyl ester] here?
The pest or weed control at 140 g/ha was 100%.

What about the pest or weed control at 140 g/ha [2] of the same compound?
The pest or weed control at 140 g/ha was 10%.

What about the pest or weed control at 140 g/ha [3] of the same compound?
Its pest or weed control at 140 g/ha is 0%.

And the pest or weed control at 140 g/ha [4]?
Its pest or weed control at 140 g/ha is 60%.

For `CCOc1c(N)nc(-c2ccc(Cl)c(OC)c2F)nc1C(=O)O` [Compound 18, 6-Amino-2-(4-chloro-2-fluoro-3-methoxyphenyl)-5-ethoxy-pyrimidine-4-carboxylic acid], which pest or weed control at 280 g/ha [1] is on record?
The pest or weed control at 280 g/ha was 100%.

And the pest or weed control at 280 g/ha [2]?
Its pest or weed control at 280 g/ha is 70%.

And the pest or weed control at 280 g/ha [4]?
Its pest or weed control at 280 g/ha is 70%.

For `COC(=O)c1nc(-c2ccc(Cl)c(OC)c2F)nc(N)c1SC` [Compound 19, 6-Amino-2-(4-chloro-2-fluoro-3-methoxyphenyl)-5-methylsulfanylpyrimidine-4-carboxylic acid methyl ester], which pest or weed control at 195 g/ha ([1]; 195 g ai/ha) is on record?
Its pest or weed control at 195 g/ha is 100%.

What about the pest or weed control at 195 g/ha ([2]; 195 g ai/ha) of the same compound?
The pest or weed control at 195 g/ha was 85%.

What about the pest or weed control at 195 g/ha ([3]; 195 g ai/ha) of the same compound?
The pest or weed control at 195 g/ha was 90%.

What about the pest or weed control at 195 g/ha ([4]; 195 g ai/ha) of the same compound?
Its pest or weed control at 195 g/ha is 90%.

Which pest or weed control at 140 g/ha [1] does the source give for `COc1c(Cl)ccc(-c2nc(N)c(SC)c(C(=O)O)n2)c1F` [Compound 21, 6-Amino-2-(4-chloro-2-fluoro-3-methoxyphenyl)-5-methylsulfanyl-pyrimidine-4-carboxylic acid] here?
Its pest or weed control at 140 g/ha is 100%.

What about the pest or weed control at 140 g/ha [2] of the same compound?
Its pest or weed control at 140 g/ha is 60%.

What about the pest or weed control at 140 g/ha [3] of the same compound?
Its pest or weed control at 140 g/ha is 100%.

What about the pest or weed control at 140 g/ha [4] of the same compound?
The pest or weed control at 140 g/ha was 85%.

For `COc1c(N)nc(-c2ccc(Cl)c(OC)c2F)nc1C(=O)O` [Compound 22, 6-Amino-2-(4-chloro-2-fluoro-3-methoxyphenyl)-5-methoxypyrimidine-4-carboxylic acid], which pest or weed control at 140 g/ha [1] is on record?
Its pest or weed control at 140 g/ha is 100%.

What about the pest or weed control at 140 g/ha [2] of the same compound?
Its pest or weed control at 140 g/ha is 100%.

What about the pest or weed control at 140 g/ha [3] of the same compound?
Its pest or weed control at 140 g/ha is 100%.

What about the pest or weed control at 140 g/ha [4] of the same compound?
Its pest or weed control at 140 g/ha is 100%.

Which melting point does the source give for `COc1c(N)nc(-c2ccc(C)cc2F)nc1C(=O)O` [Compound 28, 6-Amino-2-(2-fluoro-4-methylphenyl)-5-methoxypyrimidine-4-carboxylic acid] here?
The melting point was 94 to 97 °C.

What does the source list for `COc1c(N)nc(-c2ccc(Cl)cc2F)nc1C(=O)O` [Compound 31, 6-Amino-2-(4-chloro-2-fluorophenyl)-5-methoxypyrimidine-4-carboxylic acid]?
pest or weed control at 140 g/ha [1]: 100%; pest or weed control at 140 g/ha [2]: 70%; pest or weed control at 140 g/ha [3]: 85%; pest or weed control at 140 g/ha [4]: 100%

For `COc1c(N)nc(-c2ccc(C)cc2)nc1C(=O)O` [Compound 32, 6-Amino-5-methoxy-2-p-tolylpyrimidine-4-carboxylic acid], which pest or weed control at 140 g/ha [1] is on record?
Its pest or weed control at 140 g/ha is 100%.

And the pest or weed control at 140 g/ha [2]?
Its pest or weed control at 140 g/ha is 65%.

And the pest or weed control at 140 g/ha [3]?
Its pest or weed control at 140 g/ha is 95%.

And the pest or weed control at 140 g/ha [4]?
Its pest or weed control at 140 g/ha is 80%.
